{
  "source": "paper PMC11277056",
  "about": "“Effects of SRI-32743, a Novel Quinazoline Structure-Based Compound, on HIV-1 Tat and Cocaine Interaction with Norepinephrine Transporter” (International Journal of Molecular Sciences, 2024)",
  "type_in_all_cases": "cell-based",
  "key": {"[1]": {"molecular_target": "T1, norepinephrine transporter (hNET) (Homo sapiens, UniProt P23975)", "T1 construct": "gene SLC6A2; WT hNET", "T1 sequence (P23975 whole entry)": "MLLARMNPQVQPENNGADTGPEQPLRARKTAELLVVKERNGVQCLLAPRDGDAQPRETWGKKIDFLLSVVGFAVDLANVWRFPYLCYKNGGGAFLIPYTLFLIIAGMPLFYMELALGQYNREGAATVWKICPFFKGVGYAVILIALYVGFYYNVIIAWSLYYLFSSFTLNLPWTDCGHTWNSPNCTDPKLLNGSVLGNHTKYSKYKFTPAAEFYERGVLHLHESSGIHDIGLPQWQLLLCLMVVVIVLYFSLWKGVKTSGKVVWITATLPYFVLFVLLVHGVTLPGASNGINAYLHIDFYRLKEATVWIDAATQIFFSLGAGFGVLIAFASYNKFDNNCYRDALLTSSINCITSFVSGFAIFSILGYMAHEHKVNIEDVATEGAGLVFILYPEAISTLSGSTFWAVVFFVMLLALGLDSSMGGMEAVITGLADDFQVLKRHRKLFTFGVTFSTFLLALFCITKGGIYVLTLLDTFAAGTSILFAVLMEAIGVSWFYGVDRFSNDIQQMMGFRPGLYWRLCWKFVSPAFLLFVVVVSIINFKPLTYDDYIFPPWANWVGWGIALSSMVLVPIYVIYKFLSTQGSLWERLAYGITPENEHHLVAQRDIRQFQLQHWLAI", "assay": "[3H]MPP+ preloading and efflux in CHO cells expressing WT hNET"}, "[2]": {"molecular_target": "T2, dopamine transporter (hDAT) (Homo sapiens, UniProt Q01959)", "T2 construct": "gene SLC6A3; WT hDAT", "T2 sequence (Q01959 whole entry)": "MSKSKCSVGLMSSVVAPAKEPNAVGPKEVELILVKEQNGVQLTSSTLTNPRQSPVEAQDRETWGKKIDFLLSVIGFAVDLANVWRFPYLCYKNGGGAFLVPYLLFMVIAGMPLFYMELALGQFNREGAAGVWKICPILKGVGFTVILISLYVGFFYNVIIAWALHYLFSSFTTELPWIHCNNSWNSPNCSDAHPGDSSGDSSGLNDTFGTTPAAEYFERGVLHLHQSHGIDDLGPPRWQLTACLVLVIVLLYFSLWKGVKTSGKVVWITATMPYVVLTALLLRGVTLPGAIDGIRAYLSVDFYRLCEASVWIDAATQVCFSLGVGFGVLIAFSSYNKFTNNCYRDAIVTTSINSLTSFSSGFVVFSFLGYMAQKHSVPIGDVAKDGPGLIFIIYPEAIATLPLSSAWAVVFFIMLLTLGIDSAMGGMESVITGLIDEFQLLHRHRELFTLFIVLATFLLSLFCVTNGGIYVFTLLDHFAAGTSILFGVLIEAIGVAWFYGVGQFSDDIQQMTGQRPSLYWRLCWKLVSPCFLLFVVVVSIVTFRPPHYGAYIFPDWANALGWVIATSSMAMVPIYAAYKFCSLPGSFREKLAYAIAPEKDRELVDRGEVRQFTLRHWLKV", "assay": "[3H]DA uptake inhibition in CHO-K1 cells expressing WT hDAT"}, "[3]": {"molecular_target": "T1, norepinephrine transporter (hNET)", "assay": "[3H]Nisoxetine competition binding in intact CHO-K1 cells; also [3H]DA uptake inhibition (IC50 […]) and slowed [3H]Nisoxetine dissociation"}},
  "data": [
    {"molecule": "C[n+]1ccc(-c2ccccc2)cc1", "note": "[MPP+, N-methyl-4-phenylpyridinium]", "values": [
      {"measurement": "[3H]MPP+ preloading and efflux in CHO cells expressing WT hNET", "setting": "[1]", "value": "decreased both basal [^3H]DA and [^3H]MPP^+ efflux via WT hNET compared with the control"}
    ]},
    {"molecule": "SRI-32743", "values": [
      {"measurement": "IC50", "setting": "[2]", "value": "8.16 ± 1.16", "unit": "µM"},
      {"measurement": "IC50", "setting": "[3]", "value": "26.4 ± 5.17", "unit": "µM"}
    ]}
  ]
}
